From patent US20020111314A1, “Novel stimulation of gene expression and protein synthesis of heat shock protein 72/73 (Hsp 70)” (The Trustees of Columbia University, priority 1995, published 2002)
Square brackets hold non-standard residues; d marks the D form. Peptide text beside a SMILES is read from it. Nle = CCCC[C@H](N)C(=O)O

Tests used:
[1] = test system: HepG2 cells; experiment: Total incorporation of radiolabel (TCA cpm) as indicator of cell toxicity in HepG2 cells; type: cell-based, human; conditions: ALLN 10 μg/ml
Method: FIGS. 3A-3B: Effects of the other protease inhibitors on Hsp70 biosynthesis in HepG2 cells. HepG2 cells were preincubated in serum-free MEM containing either 1.5% BSA alone (Control), or BSA plus 40 μg/ml of ALLN, 40 μg/ml of ALLM, 50 μg/ml of leupeptin, 50 μg/ml of pepstatin A, 25 μg/ml of E-64d, 1 mM of phenylmethylsulfonyl fluoride (PMSF), 100 KIU/ml of apotinin, 1 mM of Benzamidine (Benz), 200 μM of calpain inhibitor peptide (CIP). Radiolabeling (in the presence of protease inhibitors), lysis and immunoprecipitation were performed as described in FIG. 1. The Hsp70 specific radioactivity (A) and the amount of total incorporated radioactivity (TCA-cpm) (B) were compared with each other. All the values were presented as the mean±SD from three individual culture dishes.
Preincubation and labeling media each contained either 1.5% bovine serum albumin (BSA) alone, or BSA plus ALLN (40 μg/ml except as otherwise indicated), or BSA plus other protease inhibitors at concentrations indicated in the figure legends. At the indicated times, cells were removed from the 37° C. incubator and placed on ice, washed with cold phosphate-buffer saline (PBS) twice and lysed with lysis buffer containing 1% Triton X-100 (TX100), 1% deoxycholic acid (DOC) and 0.1% SDS in PBS containing proteinase inhibitors: 2 mM phenylmethylsulfonyl fluoride (PMSF); 2 μg/ml ALLN; 2 μg/ml leupeptin; and 2 μg/ml aprotinin. After a 30 min. incubation with lysis buffer at 4° C., the lysates were centrifuged at 14,000 g in a microcentrifuge for 5 min., and the supernatants were adjusted to 1% SDS concentration and boiled for 5 min. to denature the proteins. 1% TX100 was then added to dilute the lysates to a final concentration of 0.1% SDS. Cell lysates containing equal amounts of trichloroacetic acid (TCA)-insoluble radioactivity were used for immunoprecipitations by incubating with individual monoclonal antibody (1 μg/ml) for 2.5 hours at 4° C. Protein-A Sepharose 4B was added afterwards and the lysates incubated for another 1.5 hours at 4° C. to collect the immunocomplexes. […]

[2] = test system: Hsp70; experiment: Hsp70 induction in human microvascular endothelial cell line; type: cell-based; conditions: 4 hours ALLN 40 μg/ml, 30 min labeling with [3H]-leucine
[3] = test system: HSF1; experiment: HSF1 steady-state level and trimerization (Western blot, EGS cross-linking) in HepG2 cells; type: cell-based, human; conditions: ALLN 40 μg/ml, 2 hours
Method: HepG2 cells were treated with serum-free MEM containing 1.5% BSA for 2 hours at 37° C. without any additions (lane 1), at 37° C. but containing 40 μg/ml of ALLN in the medium (lane 2), at 37° C. in a medium containing both ALLN and 50 μg/ml of cycloheximide (lane 3), at 42° C. alone (lane 4), or at 42° C. plus cycloheximide in the medium (lane 5). Cell lysates were prepared as described under Experimental Details. The lysates were either directly run on the SDS-PAGE (A) to show the steady-state protein levels of HSF1 or subjected to cross-linking with ethylene glycol bis sucrinimidylsuccinate (EGS) before running the gel (B) to show the oligomeric forms of HSF1. The proteins were then transfered to a nitrocellulose membrane and immunoblotted with anti-human HSF1 antibody. Arrows on the right side indicates the monomeric, dimeric or trimeric forms of HSF1, respectively. This experiment was repeated three times with identical results.
Total RNA was prepared using the procedure of Chomczynski and Sacchi (Chomczynski, et al., 1987) and a commercially prepared reagent, TRISOLV™ (Biotecx Laboratories Inc., TX). Equal amounts of tRNA samples (10 μg) were size-fractionated on a 1% agarose-formaldehyde gel according to the methods described (Maniatis, et al., 1982) and transferred to a piece of QIAGEN plus nylon membrane. To determine loading and transfer efficiency, RNA was stained with ethidium bromide before and after transfer. The membrane was baked for 30 min. at 80° C. in vacuo (a vacuum) followed by UV cross-linking. It was then incubated for 4 hours at 65° C. in a prehybridization mixture containing 10% dextran sulfate, 1% SDS, 1M sodium chloride, 50 mM Tris-HCl (pH 7.5) and 100 μg/ml denatured salmon sperm DNA. Hybridization was carried out for 18 hours at 65° C. in the same buffer with a ^32P-labeled (1×10^6 cpm/ml) 40-mer oligonucleotide probe to the untranslated 5′ region of a human hsp70 gene (Oncogene Science). […] The membrane was then washed four times with 2×SSC, 0.1% SDS at room temperature, one time at 65° C. for 30 min., and one time at room temperature again for 5 min., and finally rinsed with 2×SSC at room temperature. This membrane was air dried and exposed to X-ray film at −80° C. for 48 hours. For measurement of the steady-state HSF1 protein levels, whole cell extracts were prepared by lysing the cells directly with 2×SDS-sample buffer (Maniatis, et al., 1982). For chemical cross-linking experiments, whole-cell extracts were prepared as described (Mosser, et al., 1988). Briefly, the cold PBS-washed cell pellets were quickly and repeatedly frozen in liquid nitrogen. […]

[4] = test system: human microvascular endothelial cell line; experiment: TCA-cpm measurement in human microvascular endothelial cell line; type: cell-based; conditions: 4 hours ALLN 40 μg/ml

CCCC[C@@H](C=O)NC(=O)[C@H](CC(C)C)NC(=O)[C@H](CC(C)C)NC(C)=O [ALLN, N-acetyl-leucyl-leucyl-norleucinal] (Ac-Leu-Leu-[Nle]-aldehyde)
cell total incorporation of radiolabel (TCA cpm, indicator of cell toxicity) [1]: did not change significantly | increment of Hsp70 level [2]: 35 fold | oligomeric form of HSF1 after EGS cross-linking ([3]; 270-kDa cross-linked product): exists as a trimer | steady-state levels of HSF1 in whole cell extracts ([3]; with or without cycloheximide): not significantly affected | TCA-cpm measurement [4]: no change
